Measured values from PubChem BioAssay AID1918941 (Molecular Pharmacology Branch, DTP, NCI, 2023).

Tested on: SW 1271 complex spheroids, viability
Test: Anticancer human tumor SW 1271 cell line growth inhibition [LSD1];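 note: spheroids exposed to agents for 7 days before luminescence read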;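 for viability, T/C: 100% = DMSO vehicle control viability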
Details: for IC50: curve of first compound; for viability, T/C: stronger effect = lower value
Procedure, shortened: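 Complex spheroids of tumor cells with HUVEC and human MSCs, exposed to iadademstat combined with other agents. Each agent tested in half-log steps from near clinical Cmax (else 10 microM top), DMSO ≤0.25%.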

[1] = second compound 0.1 µM, first compound 0.000316 µM
[2] = second compound 0.1 µM, first compound 0.001 µM
[3] = second compound 0.1 µM, first compound 0.00316 µM
[4] = second compound 0.1 µM, first compound 0.01 µM
[5] = second compound 0.1 µM, first compound 0.0316 µM
[6] = second compound 0.1 µM, first compound 0.1 µM
[7] = second compound 0.316 µM, first compound 0.000316 µM
[8] = second compound 0.316 µM, first compound 0.001 µM
[9] = second compound 0.316 µM, first compound 0.00316 µM
[10] = second compound 0.316 µM, first compound 0.01 µM
[11] = second compound 0.316 µM, first compound 0.0316 µM
[12] = second compound 0.316 µM, first compound 0.1 µM
[13] = second compound 1 µM, first compound 0.000316 µM
[14] = second compound 1 µM, first compound 0.001 µM
[15] = second compound 1 µM, first compound 0.00316 µM
[16] = second compound 1 µM, first compound 0.01 µM
[17] = second compound 1 µM, first compound 0.0316 µM
[18] = second compound 1 µM, first compound 0.1 µM
[19] = second compound 3.16 µM, first compound 0.000316 µM
[20] = second compound 3.16 µM, first compound 0.001 µM
[21] = second compound 3.16 µM, first compound 0.00316 µM
[22] = second compound 3.16 µM, first compound 0.01 µM
[23] = second compound 3.16 µM, first compound 0.0316 µM
[24] = second compound 3.16 µM, first compound 0.1 µM
[25] = second compound 10 µM, first compound 0.000316 µM
[26] = second compound 10 µM, first compound 0.001 µM
[27] = second compound 10 µM, first compound 0.00316 µM
[28] = second compound 10 µM, first compound 0.01 µM
[29] = second compound 10 µM, first compound 0.0316 µM
[30] = second compound 10 µM, first compound 0.1 µM

SMILES: CC(C)CC(NC(=O)C(Cc1ccccc1)NC(=O)c1cnccn1)B(O)O (stereo not given) + NC1CC1c1ccc(-c2cccc(O)c2)cc1
- IC50 (second compound 0.1 µM): < 0.316 nM
- IC50 (second compound 0.316 µM): < 0.316 nM
- IC50 (second compound 1 µM): < 0.316 nM
- IC50 (second compound 3.16 µM): < 0.316 nM
- IC50 (second compound 10 µM): < 0.316 nM
- viability, T/C [1]: 2.9%
- viability, T/C [2]: 0.1%
- viability, T/C [3]: 0.1%
- viability, T/C [4]: 0.28%
- viability, T/C [5]: 0.2%
- viability, T/C [6]: 0.25%
- viability, T/C [7]: 3.44%
- viability, T/C [8]: 0.11%
- viability, T/C [9]: 0.09%
- viability, T/C [10]: 1.18%
- viability, T/C [11]: 0.59%
- viability, T/C [12]: 0.2%
- viability, T/C [13]: 2.62%
- viability, T/C [14]: 0.2%
- viability, T/C [15]: 0.37%
- viability, T/C [16]: 4.1%
- viability, T/C [17]: 0.05%
- viability, T/C [18]: 0.13%
- viability, T/C [19]: 2.05%
- viability, T/C [20]: 0.64%
- viability, T/C [21]: 0.12%
- viability, T/C [22]: 4.7%
- viability, T/C [23]: 0.14%
- viability, T/C [24]: 0.19%
- viability, T/C [25]: 6.62%
- viability, T/C [26]: 0.5%
- viability, T/C [27]: 0.15%
- viability, T/C [28]: 0.72%
- viability, T/C [29]: 0.12%
- viability, T/C [30]: 0.19%

SMILES: CC(C)CC(NC(=O)CNC(=O)c1cc(Cl)ccc1Cl)B1OC(=O)CC(CC(=O)O)(C(=O)O)O1 (stereo not given) + NC1CC1c1ccc(-c2cccc(O)c2)cc1
- IC50 (second compound 0.1 µM): 4.86 nM
- IC50 (second compound 0.316 µM): 4.67 nM
- IC50 (second compound 1 µM): 4.38 nM
- IC50 (second compound 3.16 µM): 3.94 nM
- IC50 (second compound 10 µM): 4.36 nM
- viability, T/C [1]: 86.8%
- viability, T/C [2]: 83.1%
- viability, T/C [3]: 76%
- viability, T/C [4]: 6.29%
- viability, T/C [5]: 0.38%
- viability, T/C [6]: 0.5%
- viability, T/C [7]: 83.1%
- viability, T/C [8]: 85.3%
- viability, T/C [9]: 72.1%
- viability, T/C [10]: 6.64%
- viability, T/C [11]: 0.44%
- viability, T/C [12]: 0.17%
- viability, T/C [13]: 75.1%
- viability, T/C [14]: 76.9%
- viability, T/C [15]: 67.8%
- viability, T/C [16]: 4.77%
- viability, T/C [17]: 0.26%
- viability, T/C [18]: 0.21%
- viability, T/C [19]: 73.1%
- viability, T/C [20]: 72.1%
- viability, T/C [21]: 61%
- viability, T/C [22]: 3.44%
- viability, T/C [23]: 3.87%
- viability, T/C [24]: 0.21%
- viability, T/C [25]: 66.1%
- viability, T/C [26]: 67.6%
- viability, T/C [27]: 70.9%
- viability, T/C [28]: 3.06%
- viability, T/C [29]: 0.15%
- viability, T/C [30]: 0.18%

SMILES: COc1cc(Nc2ncc3c(n2)-c2ccc(Cl)cc2C(c2c(F)cccc2OC)=NC3)ccc1C(=O)O + NC1CC1c1ccc(-c2cccc(O)c2)cc1
- IC50 (second compound 0.1 µM): 79.7 nM
- IC50 (second compound 0.316 µM): 69 nM
- IC50 (second compound 1 µM): 114 nM
- IC50 (second compound 3.16 µM): 79 nM
- IC50 (second compound 10 µM): 64.5 nM
- viability, T/C [3]: 75.8%
- viability, T/C [4]: 69.2%
- viability, T/C [5]: 67.3%
- viability, T/C [6]: 43.5%
- viability, T/C (second compound 0.1 µM, first compound 0.316 µM): 29%
- viability, T/C (second compound 0.1 µM, first compound 1 µM): 13.3%
- viability, T/C [9]: 62.6%
- viability, T/C [10]: 69.7%
- viability, T/C [11]: 58.2%
- viability, T/C [12]: 43%
- viability, T/C (second compound 0.316 µM, first compound 0.316 µM): 31.4%
- viability, T/C (second compound 0.316 µM, first compound 1 µM): 13.1%
- viability, T/C [15]: 68.4%
- viability, T/C [16]: 67.3%
- viability, T/C [17]: 73.6%
- viability, T/C [18]: 48.1%
- viability, T/C (second compound 1 µM, first compound 0.316 µM): 31%
- viability, T/C (second compound 1 µM, first compound 1 µM): 11.6%
- viability, T/C [21]: 60.1%
- viability, T/C [22]: 55.7%
- viability, T/C [23]: 67.7%
- viability, T/C [24]: 43.4%
- viability, T/C (second compound 3.16 µM, first compound 0.316 µM): 28.6%
- viability, T/C (second compound 3.16 µM, first compound 1 µM): 13.7%
- viability, T/C [27]: 65.6%
- viability, T/C [28]: 59.1%
- viability, T/C [29]: 61.2%
- viability, T/C [30]: 43%
- viability, T/C (second compound 10 µM, first compound 0.316 µM): 29.6%
- viability, T/C (second compound 10 µM, first compound 1 µM): 17.2%
